From patent US20230071765A1, “COMPOSITIONS HAVING THIOREDOXIN ACTIVITY AND RELATED METHODS” (ORPRO THERAPEUTICS, INC., priority 2020, published 2023)
Where “and” joins values, the source holds several entries; their conditions need not be identical. Equal values may be shown once.

How the values were obtained:
[1] = system: primary HBE cells from healthy non-CF donors; assay: μOCT of MCT rate and CBF in non-CF primary HBE cells; format: cell-based, human; details: 3 hrs post-treatment; ORP100S 1-3 mM, DTT 1.6 mM; PBS 0.05±0.007; mean±SE
Description: (§1) Primary human bronchial epithelial (HBE) cells were derived from lung explants from healthy failed donors and CF patients homozygous for F508del CFTR. […]
(§2) One-micron resolution spectral domain μOCT was used to obtain measurements of mucociliary transport (MCT) rate and ciliary beat frequency (CBF) in HBE monolayers and of MCT rate of sputum ex vivo. This first-in-kind, high-speed (40 frames per second, 512 lines per frame) microscopic reflectance imaging modality enables simultaneous anatomic imaging in cell cultures and intact tissues that readily distinguishes the properties of CF compared to normal epithelia (Liu L, Chu K K, Houser G H, Diephuis B J, Li Y, Wilsterman E J, Shastry S, Dierksen G, Birket S E, Mazur M, et al., 2013, Method for quantitative study of airway functional microanatomy using micro-optical coherence tomography, PLoS One 8(1):e54473; Tuggle K L, Birket S E, Cui X, Hong J, Warren J, Reid L, Chambers A, Ji D, Gamber K, Chu K K, et al., 2014, Characterization of defects in ion transport and tissue development in Cystic Fibrosis Transmembrane Conductance Regulator (CFTR)-knockout rats. […] Images were captured, and MCT rate and CBF calculated, as described in the preceding references.

mucins of 4% HBE mucus = assay: mucin molecular weight by GPC-MALLS; format: biochemical, human; details: 1 mM, 1 hr at 37° C.; from 180 MDa
Description: Mucus Preparation: Aseptic mucus was harvested from over 100 individual HBE cultures from 20 different CF donors and prepared to four weight-percent (4%) solids, a concentration that typifies chronic obstructive pulmonary disease (COPD) and mild CF (Hill, D. B. et al., 2014, A biophysical basis for mucus solids concentration as a candidate biomarker for airways disease, PloS one 9, e87681; Anderson, W. H. et al., 2015, The relationship of mucus concentration (hydration) to mucus osmotic pressure and transport in chronic bronchitis., Am J Resp Crit Care Med 192: 182-90). […] Creep recovery experiments were performed in which a known stress (between 0.05 and ˜100 Pa) was applied to treated or control mucus for 10 seconds, and the rheological recovery of the fluid was recorded for an additional 50 seconds. […] From the measured parameters the viscosity and elasticity of the fluid were determined as a function of applied stress. […] Mucin molecular weight determination: Molecular weight reduction following test article treatment was determined using a combination of gel-permeation chromatography with multi-angle laser light scattering on a Wyatt Heleos MALLS system. […] Mucin MW was determined by fitting a Berry model to light scattering from 11 different angles using Wyatt Astra software. […]

[2] = system: CF patient sputum on wild type rat trachea; assay: CF sputum transport ex vivo on excised rat trachea (μOCT); set-up: species or system human sputum; details: sputum treated 2 hrs; ORP100S 3 mM, DTT 1.6 mM, DNase 10 or 25 μg/ml; PBS 0.97±0.17
Protocol: To determine the effect of ORP100S on CF sputum transportability, sputum specimens spontaneously expectorated from 4 CF patients hospitalized for pulmonary exacerbation were collected and stored at 4° C. before being divided into 200 μL aliquots and treated with ORP100S (3 mM), PBS, DTT (1.6 mM), or DNase (10 or 25 μg/ml) on the day of or day following collection. Upon treatment, sputum aliquots were placed in a 37° C. water bath for 2 hrs and then applied (3 μl per sample) for μOCT imaging to the distal end of trachea excised from adult non-CF rats. Trachea were washed 2× with 500 μl of PBS before sputum addition. […]
One-micron resolution spectral domain μOCT was used to obtain measurements of mucociliary transport (MCT) rate and ciliary beat frequency (CBF) in HBE monolayers and of MCT rate of sputum ex vivo. […] Images were captured, and MCT rate and CBF calculated, as described in the preceding references.
The effect of ORP100S on mucus clearance using intact rat trachea, which include the complexities of the airway surface such as gland expression of a fully differentiated mucosal surface, was further evaluated. […] MCT was measured by projecting a cross-sectional line through the mucus through time, with the slope of the particle trajectories indicating velocity. […]

[3] = system: primary HBE cells from CF donors homozygous for F508del; assay: μOCT of MCT rate and CBF in CF primary HBE cells; format: cell-based, human; details: 3 hrs post-treatment; ORP100S 1-3 mM, DTT 1.6 mM; PBS 7.30±2.9; mean±SE
Description: as §1, §2

[4] = thiol pKa; thioredoxin: active site Cys32; cited from earlier work
human insulin = molecular target: T1, human insulin (Homo sapiens, UniProt P01308); assay: RP-HPLC insulin reduction assay (conversion of insulin heterodimer); format: biochemical
T1 construct: The two chains of human insulin have a total of six Cys residues which form three disulfide bonds in its mature structure
T1 sequence (P01308 25-54 limits assumed): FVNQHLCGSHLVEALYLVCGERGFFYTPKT
T1 sequence (P01308 90-110 limits assumed): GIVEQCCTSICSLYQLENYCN
Protocol: Functional assays 1. Reduction state of ORP100S was quantified using DTNB which reacts with free SH groups resulting in a yellow color change at 412 nm. Fifty microliters of 2.5 mM rhTrx was added to a 96-well plate, followed by 175 microliters of sample buffer and 25 microliters of 6 mM DTNB. After reactions were initiated by the addition of DTNB, change in kinetic absorbance at 412 nm due to DTNB reduction was monitored spectrophotometrically at 30° C. ORP100S concentration was determined by A280 (Nanodrop) using the extinction coefficient of human Trx-1 (7,000). The actual concentrations of free sulfhydryl groups were calculated based on the absorbance at 412 nm and the extinction coefficient of DTNB (14,150) in order to determine the reduction state as percentage of free sulfhydryl. […] 2. Percent of free monomer ORP100S in solution was determined using SEC. Samples were analyzed on a BioBasic S-300 250×4.6 column (Thermo Scientific) run on an Agilent 1100 HPLC system. […] The flow rate was 0.35 mL/min and absorbance was monitored at 280 nm. […] The ORP100S monomer percentage was determined by integration of the area under the peak of the monomeric fraction divided by the total area under the curve of the chromatogram. […] Disulfide bond reduction activity of ORP100S was quantified by assaying the reduction state of a small protein (human insulin) which in its heterodimeric form contains two intermolecular and one intramolecular disulfide, all three of which are known to be suitable thioredoxin substrates. Insulin reduction has classically been used to quantify thioredoxin activity by absorbance change following addition of NADPH and TrxR (Holmgren A., 1979, Thioredoxin catalyzes the reduction of insulin disulfides by dithiothreitol and dihydrolipoamide, J Biol Chem 254:9627-32). […] Relative activity at each time point was determined from changes in the area under the insulin heterodimer peak following separation over RP-HPLC (Agilent 1100) using an Intrada WP-RP 50×3 (Imtakt) column. […] The flow rate was 0.2 mL/min and absorbance was measured at 280 nm. […]

With `O[C@H](CS)[C@H](O)CS` (racemic) [DTT, dithiothreitol, reference compound] the MCT rate [1] was 1.41±0.1 mm/min, the “molecular weight of mucins” value (mucins of 4% HBE mucus) was 210 MDa and the “MCT rate of treated sputum” value [2] was 2.31±0.34 mm/min. The MCT rate [3] was 33.33±12.9 mm/min.
For `N[C@@H](CCC(=O)N[C@@H](CS)C(=O)NCC(=O)O)C(=O)O` [GSH, glutathione], the pKa [4] is given as 9.1.
For `O=S(=O)(O)CCS` [Mesna, 2-mercaptoethane sulfonate Na], the pKa [4] is given as 9.2.
In the case of `CC(=O)N[C@@H](CS)C(=O)O` [NAC, N-acetyl cysteine, reference compound], the insulin reduction (human insulin; 1.25 mM, pH 6 or 8, 60 min) is reported as “inactive”, the insulin reduction (human insulin; 12.5 mM, pH 6, 60 min) is reported as “not at pH 6” and the insulin reduction (human insulin; 12.5 mM, pH 8, 60 min) is reported as “able to reduce insulin”.
In the case of `NCCS` [cysteamine], the pKa [4] is given as 8.3 and 8.5.
